Reference: US20260240208A1, “FLAVANONE COMPOUNDS AND THEIR USE AS FLAVOR MODIFIERS” (Firmenich Incorporated, priority 2023, published 2026)

What was measured:
[1] = sensory panel: sweetness enhancement of sucrose, rating on a scale of 0 to 10; type: in vivo, human; settings: mean panel score, scale 0 to 10
Experimental: Two control samples were prepared of 6 wt % sucrose and 7.5 wt % sucrose in Low sodium buffer. Two test samples were prepared: one at 6 wt % sucrose plus 4 ppm of Compound 101, and the other at 6 wt % sucrose plus 7 ppm of Compound 103. Panelists were asked to evaluate the four samples and rate the sweetness on a scale of 0 to 10, with a higher rating indicating greater sweetness.

[2] = sensory panel paired comparison: sweetness alone versus 1.5 wt % sucrose; type: in vivo, human
Experimental: The test samples were prepared from Compound 101 (4 ppm aqueous solution) and Compound 103 (7 ppm aqueous solution). Each of the test samples was evaluated by a sensory panel for its sweetness relative to 1.5 wt % sucrose solution. The panelists were asked to choose the sweeter sample in a pair of a compound test sample and a 1.5 wt % solution of sucrose. For Compound 101, the taste sample was selected 14 times as sweeter, while the sucrose control was selected 46 times out of total 60 times. For Compound 103, the taste sample was selected 14 times as sweeter, while the sucrose control was selected 55 times out of total 69 times.

TIR sweet taste receptor = target: T1, TIR sweet taste receptor (Homo sapiens, UniProt Q7RTX0+Q8TE23); experiment: in vitro cell-based assay with cells overexpressing the sweet taste receptor, sweet dose-response; settings: for EC50: cells overexpressing TIR sweet taste receptor, sweet dose-response curves
T1 construct: expressed in transfected cells
T1 sequence (Q8TE23 20-839): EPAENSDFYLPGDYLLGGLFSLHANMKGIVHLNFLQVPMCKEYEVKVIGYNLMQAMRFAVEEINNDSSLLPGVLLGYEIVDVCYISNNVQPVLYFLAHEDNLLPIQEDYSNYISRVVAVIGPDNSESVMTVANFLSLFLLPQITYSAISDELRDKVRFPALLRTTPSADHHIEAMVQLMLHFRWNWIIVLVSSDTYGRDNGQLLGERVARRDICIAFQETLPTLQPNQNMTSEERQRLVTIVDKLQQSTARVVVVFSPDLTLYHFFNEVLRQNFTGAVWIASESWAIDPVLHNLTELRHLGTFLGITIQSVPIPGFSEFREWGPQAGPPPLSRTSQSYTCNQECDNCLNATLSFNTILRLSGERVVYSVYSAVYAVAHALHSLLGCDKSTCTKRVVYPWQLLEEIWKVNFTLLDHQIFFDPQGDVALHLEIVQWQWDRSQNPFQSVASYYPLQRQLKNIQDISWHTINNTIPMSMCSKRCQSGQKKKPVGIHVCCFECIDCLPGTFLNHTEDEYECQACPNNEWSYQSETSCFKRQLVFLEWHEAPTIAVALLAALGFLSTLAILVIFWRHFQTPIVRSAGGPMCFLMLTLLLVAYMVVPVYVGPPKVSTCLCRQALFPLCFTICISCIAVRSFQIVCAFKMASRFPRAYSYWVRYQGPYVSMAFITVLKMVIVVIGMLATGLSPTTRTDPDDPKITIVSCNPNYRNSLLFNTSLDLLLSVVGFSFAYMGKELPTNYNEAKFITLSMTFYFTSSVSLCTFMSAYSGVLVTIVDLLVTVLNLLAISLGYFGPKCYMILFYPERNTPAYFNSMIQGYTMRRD
T1 sequence (Q7RTX0 21-852): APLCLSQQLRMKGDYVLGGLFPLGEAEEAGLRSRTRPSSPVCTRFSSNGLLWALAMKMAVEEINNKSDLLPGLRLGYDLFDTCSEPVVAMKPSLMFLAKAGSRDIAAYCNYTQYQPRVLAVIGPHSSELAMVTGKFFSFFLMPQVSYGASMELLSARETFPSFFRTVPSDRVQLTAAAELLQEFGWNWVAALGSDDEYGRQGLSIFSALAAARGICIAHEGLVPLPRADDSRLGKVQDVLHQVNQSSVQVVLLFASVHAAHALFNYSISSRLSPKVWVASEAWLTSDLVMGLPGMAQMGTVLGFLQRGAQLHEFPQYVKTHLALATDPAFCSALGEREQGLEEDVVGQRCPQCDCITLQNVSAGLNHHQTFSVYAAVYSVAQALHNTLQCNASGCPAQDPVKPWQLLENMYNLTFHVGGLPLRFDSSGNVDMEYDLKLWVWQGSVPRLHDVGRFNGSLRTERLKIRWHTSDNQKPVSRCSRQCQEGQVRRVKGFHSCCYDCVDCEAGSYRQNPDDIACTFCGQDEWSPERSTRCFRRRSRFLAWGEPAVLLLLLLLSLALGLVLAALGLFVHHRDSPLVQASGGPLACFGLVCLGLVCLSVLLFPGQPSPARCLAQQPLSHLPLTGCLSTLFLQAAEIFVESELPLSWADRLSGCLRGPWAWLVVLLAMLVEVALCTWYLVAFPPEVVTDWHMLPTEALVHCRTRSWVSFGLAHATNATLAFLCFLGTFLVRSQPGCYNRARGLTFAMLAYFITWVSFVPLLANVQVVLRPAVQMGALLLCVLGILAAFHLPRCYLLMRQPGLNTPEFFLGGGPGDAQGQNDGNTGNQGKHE
Experimental: Each of Compounds 101-106 was synthesized. Thereafter, the compounds were tested in an in vitro cell-based assay having cells that overexpress the TIR sweet taste receptor. The sweet dose-response curves were recorded and the EC50 was determined. Table 2 summarizes calculated EC50 values for certain tested compounds.

[3] = pair: Compound 101 4 ppm aqueous solution vs 1.5 wt % sucrose solution, total 60 times
[4] = pair: Compound 103 7 ppm aqueous solution vs 1.5 wt % sucrose solution, total 69 times

Which “Sweetness Score” value ([1]; 6 wt % sucrose + 4 ppm compound) does the source give for `COc1ccc(C2Oc3cccc(O)c3C(=O)C2OC(C)=O)cc1O` (stereo not drawn) [Compound 101, 5-hydroxy-2-(3-hydroxy-4-methoxy-phenyl)-4-oxochroman-3-yl acetate] here?
Its value is 9.8.

What about the “times selected as sweeter” value [2, 3] of the same compound?
Its value is 14 times.

What about the EC50 (TIR sweet taste receptor) of the same compound?
The EC50 was roughly 1 µM.

For `CCC(=O)OC1C(=O)c2c(O)cccc2OC1c1ccc(OC)c(O)c1` (stereo not drawn) [Compound 102, 5-hydroxy-2-(3-hydroxy-4-methoxy-phenyl)-4-oxochroman-3-yl propionate], which EC50 (TIR sweet taste receptor) is on record?
Its EC50 is roughly 2 µM.

And the agonist character (TIR sweet taste receptor; remark printed beside the EC50)?
Its agonist character is “partial agonist”.

For `COc1ccc(C2Oc3cc(O)ccc3C(=O)C2OC(C)=O)cc1O` (stereo not drawn) [Compound 103, 7-hydroxy-2-(3-hydroxy-4-methoxyphenyl)-4-oxochroman-3-yl acetate], which “Sweetness Score” value ([1]; 6 wt % sucrose + 7 ppm compound) is on record?
The value was 8.8.

What about the “times selected as sweeter” value [2, 4] of the same compound?
Its value is 14 times.

And the EC50 (TIR sweet taste receptor)?
The EC50 was roughly 8 µM.

For `CCC(=O)OC1C(=O)c2ccc(O)cc2OC1c1ccc(OC)c(O)c1` (stereo not drawn) [Compound 104, 7-hydroxy-2-(3-hydroxy-4-methoxyphenyl)-4-oxochroman-3-yl propionate], which EC50 (TIR sweet taste receptor) is on record?
Its EC50 is roughly 10 µM.

Which EC50 (TIR sweet taste receptor) does the source give for `CCC(=O)OC1C(=O)c2c(O)cc(O)cc2OC1c1ccc(OC)c(O)c1` (stereo not drawn) [Compound 105, 5,7-dihydroxy-2-(3-hydroxy-4-methoxyphenyl)-4-oxochroman-3-yl propionate] here?
The EC50 was roughly 5 µM.

For `CC(=O)OC1C(=O)c2c(O)cccc2OC1c1ccc(O)cc1` (stereo not drawn) [Compound 106, 5-hydroxy-2-(4-hydroxyphenyl)-4-oxochroman-3-yl acetate], which EC50 (TIR sweet taste receptor) is on record?
Its EC50 is roughly 45 µM.

For `OC[C@H]1O[C@@](CO)(O[C@H]2O[C@H](CO)[C@@H](O)[C@H](O)[C@H]2O)[C@@H](O)[C@@H]1O` [sucrose, reference compound], which “Sweetness Score” value ([1]; 6 wt % sucrose alone, low sodium buffer (control)) is on record?
The value was 6.6.

What about the “Sweetness Score” value ([1]; 7.5 wt % sucrose alone, low sodium buffer (control)) of the same compound?
The value was 8.6.

And the “times selected as sweeter” value [2, 3]?
The value was 46 times.

And the “times selected as sweeter” value [2, 4]?
Its value is 55 times.
